In PubChem BioAssay (NCI):
Where “and” joins values, the source holds several entries; their conditions need not be identical. Equal values may be shown once.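 Cells were grown in 96-well plates and exposed to each compound for 48 hours at five concentrations; endpoints were interpolated linearly between bracketing concentrations, or set to the highest concentration if not reached. GI50 = concentration required for 50% inhibition of growth. TGI marks complete inhibition of growth.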

How the values were obtained:
Assay in all cases: NCI tumour cell line growth inhibition, 48 h
IGROV1 ovarian = test system: IGROV1 ovarian
HCT-15 colon = test system: HCT-15 colon
OVCAR-4 ovarian = test system: OVCAR-4 ovarian
SK-MEL-2 melanoma = test system: SK-MEL-2 melanoma
786-0 renal = test system: 786-0 renal
SR leukemia = test system: SR leukemia
UACC-257 melanoma = test system: UACC-257 melanoma
NCI/ADR-RES ovarian = test system: NCI/ADR-RES ovarian
UACC-62 melanoma = test system: UACC-62 melanoma
A549 NSCLC = test system: A549 NSCLC

| Compound | GI50 (IGROV1 ovarian) | TGI (IGROV1 ovarian) | GI50 (HCT-15 colon) | TGI (HCT-15 colon) | GI50 (OVCAR-4 ovarian) | TGI (OVCAR-4 ovarian) | GI50 (SK-MEL-2 melanoma) [nM] | TGI (SK-MEL-2 melanoma) [nM] | GI50 (786-0 renal) [nM] | TGI (786-0 renal) [nM] | GI50 (SR leukemia) [nM] | TGI (SR leukemia) [nM] | GI50 (UACC-257 melanoma) [nM] | TGI (UACC-257 melanoma) [nM] | GI50 (NCI/ADR-RES ovarian) | TGI (NCI/ADR-RES ovarian) | GI50 (UACC-62 melanoma) | TGI (UACC-62 melanoma) | GI50 (A549 NSCLC) | TGI (A549 NSCLC) |
| --- | --- | --- | --- | --- | --- | --- | --- | --- | --- | --- | --- | --- | --- | --- | --- | --- | --- | --- | --- | --- |
| COc1c(C)cnc(Cn2cnc3c(Cl)nc(N)nc32)c1C | 455 nM | > 100000 nM | 107 nM | 26700 nM | 7170 nM | > 100000 nM | 434 | > 59500 | 937 | > 100000 | 117 | > 100000 | 297 | 9570 | 509 nM | > 100000 nM | 301 nM | 6950 nM | 179 nM | > 100000 nM |
| C=C1C(=O)O[C@H]2[C@H]1CC/C(Cn1cc(CNC(=O)c3cc4ccccc4[nH]3)nn1)=C\CC[C@@]1(C)O[C@@H]21 | 3240 nM | 10600 nM | 10200 nM | 27400 nM | 4520 nM | 17100 nM | 6430 | 23000 | 2960 | 9610 | 2690 | 25700 | 4000 | 16000 | 69300 nM | > 100000 nM | 1570 nM | 3330 nM | 22100 nM | 46500 nM |
| O=C(/C=C/CN1CCCCC1)Nc1cc2c(Nc3ccc(F)c(Cl)c3F)ncnc2cc1OCCOC(F)F | < 18.2 nM | 815 nM | 633 nM | 3860 nM | 1230 nM | 13000 nM | 1850 | 4700 | 781 | 6380 | 598 | 4240 | 1740 | 5640 | 446 nM | 3820 nM | 1630 nM | 5110 nM | 585 nM | 9920 nM |
| CC1SC(c2cccc(Oc3ccccc3)c2)N(CCc2cccs2)C1=O (stereo not given) | 1070 nM | 3330 nM | 1080 nM | 3770 nM | 425 nM | 1880 nM | 1030 | 2310 | 1200 | 2830 | 585 | 4190 | 1250 | 3300 | 708 nM | 3010 nM | 676 nM | 2220 nM | 864 nM | 3670 nM |
| CC(=O)OC1C(OC/C2=C/C3[C@@H](C(C)C)CC=C(C)[C@@H]3CC(OC(=O)/C=C/c3cn(C)cn3)[C@]3(C)C=C[C@@]2(O)O3)OCC(O)C1O (stereo not given in full) | 73.7 nM | > 50000 nM | 1200 nM | > 50000 nM | 58.6 nM | > 50000 nM | 19.9 | – | 44.1 | > 50000 | 29.2 | > 50000 | 18.8 | > 50000 | 4810 nM | > 39400 nM | 24.2 nM | > 50000 nM | 20.6 nM | > 50000 nM |
| O=C1/C(=C/c2ccc([N+](=O)[O-])s2)Oc2ccc(Cl)cc21 | 311 nM | 983 nM | 192 nM | 550 nM | 406 nM | 897 nM | 260 | 624 | 887 | 3210 | 204 | 730 | 630 | 2250 | 738 nM | 2890 nM | 271 nM | 771 nM | 533 nM | 2450 nM |
| CCCCCCn1c(=N)n(CC(O)COc2cccc(C)c2)c2ccccc21 (stereo not given) | 2780 nM | 10200 nM | 2120 nM | 5340 nM | 2150 nM | 6270 nM | 1910 | 4260 | 1720 | 3240 | 1760 | 5840 | 2000 | 4350 | 2820 nM | 8890 nM | 1920 nM | 4970 nM | 3470 nM | 13300 nM |
| C[CH2][Ge]1([CH2]C)[CH2]CC2(CCN(CCCN(C)C)C2)C[CH2]1 | 1750 nM and 4540 nM | 3420 nM and 10800 nM | 1070 nM and 1510 nM | 2740 nM and 2650 nM | 694 nM and 4410 nM | 6790 nM and 11600 nM | 616 | 1320 | 1430 | 2870 | 231 | 1250 | 1310 | 2640 | 1830 nM and 5510 nM | 4580 nM and 13400 nM | 875 nM and 1570 nM | 1780 nM and 3190 nM | 1440 nM and 2350 nM | 2930 nM and 4470 nM |
| Cn1c(N)cc(=O)nc1N | – | > 100000 nM | – | > 100000 nM | – | > 100000 nM | – | > 100000 | – | > 100000 | – | > 100000 | – | – | – | > 100000 nM | – | > 100000 nM | – | > 100000 nM |
| COc1ccc(C2CC(c3cccc(Nc4ccnc5cc(Cl)ccc45)c3)=NN2c2ccc(Cl)cc2)cc1 (stereo not given) | 18800 nM | > 100000 nM | 2300 nM | 18700 nM | – | – | 11500 | 38900 | 2940 | 44000 | 4290 | 32500 | 6400 | 51400 | 9510 nM | 43400 nM | 601 nM | 13300 nM | 4700 nM | > 100000 nM |
| CCCC1C2=C(C(=O)OC2=O)C2C(CC)CC3=C(C(=O)OC3=O)C12 (stereo not given) | – | > 100000 nM | – | > 100000 nM | – | – | – | > 100000 | – | > 100000 | – | > 100000 | – | > 100000 | – | > 100000 nM | – | > 100000 nM | – | > 100000 nM |
